From publication PMC4245125, “Pharmacological and Behavioral Characterization of D-473, an Orally Active Triple Reuptake Inhibitor Targeting Dopamine, Serotonin and Norepinephrine Transporters” (PLoS ONE, 2014)
Where a name gives a salt, the structure may show the parent alone.

Legend:
hDAT = hDAT (Homo sapiens, UniProt Q01959); experiment: Inhibition of [3H]DA uptake by cloned human DAT in HEK293 cells; details: nM, HEK293 cells expressing hDAT, average±S.E.M., 3 to 10 determinations
[1] = found earlier by the authors; no reference given; cited from earlier work
hNET = hNET (Homo sapiens, UniProt P23975); experiment: Inhibition of [3H]DA uptake by cloned human NET in HEK293 cells; details: NET uptake, Ki, nM [3H]DA, HEK293 cells expressing hNET; average±S.E.M., 3 to 10 determinations
hNET, sequence (P23975 whole entry): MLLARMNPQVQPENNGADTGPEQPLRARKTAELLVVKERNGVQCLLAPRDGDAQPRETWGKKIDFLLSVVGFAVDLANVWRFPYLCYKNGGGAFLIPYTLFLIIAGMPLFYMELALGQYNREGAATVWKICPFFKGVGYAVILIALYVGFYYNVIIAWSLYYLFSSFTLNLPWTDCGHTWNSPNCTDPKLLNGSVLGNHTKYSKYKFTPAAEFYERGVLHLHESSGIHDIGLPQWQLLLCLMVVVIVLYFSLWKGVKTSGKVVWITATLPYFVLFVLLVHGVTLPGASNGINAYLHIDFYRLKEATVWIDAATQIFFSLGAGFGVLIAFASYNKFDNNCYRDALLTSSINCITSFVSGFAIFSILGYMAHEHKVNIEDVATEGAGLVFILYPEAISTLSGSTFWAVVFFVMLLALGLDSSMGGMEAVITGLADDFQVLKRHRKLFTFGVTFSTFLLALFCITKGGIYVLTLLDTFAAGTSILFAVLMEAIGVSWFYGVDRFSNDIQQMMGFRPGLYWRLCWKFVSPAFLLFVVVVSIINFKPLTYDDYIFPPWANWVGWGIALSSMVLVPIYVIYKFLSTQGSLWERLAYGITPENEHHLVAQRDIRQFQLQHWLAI

[2] = Plasma concentration after oral administration in rats; type: in vivo; details: rat, male Sprague-Dawley rats, 25 mg/kg PO
Method: Sample preparation: Following oral administration of 25 mg/kg of D-473 and D-142 in male Sprague Dawley rats, the blood samples were collected at different time points over a period of 8 h for analysis. Concentrations of D-473 and D-142 in plasma were quantitated using a set of calibration standards prepared in blank matrix that were processed in parallel. Plasma concentration evaluation was carried out by the CRO, Absorption System, PA. Additionally, brain uptake studies of D-473 were carried out at three different time points (2, 4 and 6 h) following oral administration of 25 mg/kg D-473. Concentrations of D-473 in rat brain were quantitated using a set of calibration standards which were prepared in blank brain homogenate matrix on the day of analysis. The standard samples (5, 10, 25, 100, 500, 1000, and 2000 ng/mL) for calibration curve were prepared by spiking 45 µL of blank rat plasma with 5 µL of appropriate working dilution of D-473 in acetonitrile. The bioanalytical sample preparation for brain and plasma analysis followed by quantification of test compounds entailed the addition of 250 µL acetonitrile to every 50 µL of standard and analyte samples to precipitate tissue plasma proteins and tissue macromolecules. These mixtures were then vortexed for 15 min at 1400 rpm. The suspensions were then clarified by centrifugation (18000 g, 10 min at 4°C), and each 150 µL of the resulting supernatant was mixed well with 50 µL 0.1% formic acid in 50/50 (v/v) ACN/water solution for about 10 sec. The mixtures were again centrifuged (18000 g, 10 min at 4°C) before 100 µL of clear supernatant were transferred to auto sampler vials for LC-MS/MS analysis.
The analysis of blood sample was carried out by the CRO Absorption system, PA. Briefly, the analysis was carried out by Waters Acquity UPLC equipped with PE Sciex API4000 mass spectrometer. Reverse phase Waters Acquity BEH Phenyl Column 1.7micron, 2.1×30 mm column was used for analysis. 5 µL of sample solutions were injected with a flow rate 1 mL/min and the samples were eluted with gradient elution using solvent A (10% buffer: 90% water) and solvent B (10% buffer: 90% acetonitrile). Buffer used was 40 mM Ammonium Formate Buffer, pH 3.5. Pharmacokinetic prarameters were estimated by a non-compartmental model using WinNonlin v5.2.1 software.

hSERT = hSERT (Homo sapiens, UniProt P31645); experiment: Inhibition of [3H]5-HT uptake by cloned human SERT in HEK293 cells
hSERT, sequence (P31645 whole entry): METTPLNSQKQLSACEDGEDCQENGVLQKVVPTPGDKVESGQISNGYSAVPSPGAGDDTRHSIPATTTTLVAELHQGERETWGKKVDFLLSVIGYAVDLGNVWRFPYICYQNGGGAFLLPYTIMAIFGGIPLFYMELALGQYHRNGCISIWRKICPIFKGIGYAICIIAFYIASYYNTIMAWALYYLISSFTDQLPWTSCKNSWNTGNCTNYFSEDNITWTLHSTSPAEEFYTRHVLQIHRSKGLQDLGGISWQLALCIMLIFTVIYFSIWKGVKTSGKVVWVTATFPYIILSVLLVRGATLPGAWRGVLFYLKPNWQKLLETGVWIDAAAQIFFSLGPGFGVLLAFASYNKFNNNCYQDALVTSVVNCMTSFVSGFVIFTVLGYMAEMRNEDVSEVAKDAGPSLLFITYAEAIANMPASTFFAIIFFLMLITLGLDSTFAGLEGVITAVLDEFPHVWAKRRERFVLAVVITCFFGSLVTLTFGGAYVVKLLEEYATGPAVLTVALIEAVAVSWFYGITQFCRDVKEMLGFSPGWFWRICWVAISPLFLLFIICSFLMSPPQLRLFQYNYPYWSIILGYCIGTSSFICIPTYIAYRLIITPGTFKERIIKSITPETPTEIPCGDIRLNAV

dialysate DOPAC = system: dialysate DOPAC; parameters: method as in PMID 2477259; details: DAT releaser; cited from earlier work
[3] = system: locomotor activity (horizontal activity); experiment: Locomotor activity in rats; type: in vivo; details: rat; 5 mg/kg i.p.; vs vehicle (P<0.001)
Method: Sprague Dawley Rats were tested at 25 mg/kg oral dose of D-473 to monitor changes in any locomotor activity in acrylic Auto-Track/Opto-Varimex-4 System (Columbus Instrument; Columbus, Ohio). The purpose was to evaluate locomotor activity of the same doses of drug that were used in the forced swim test. Rats were acclimated in the test chambers for 1 h prior to oral administration of D-473. Locomotor activity of the drug was measured for a total of two hour post administration of the drug which corresponded to the time of measurement in the forced swimming experiment. GBR 12909 was studied as a control drug known to stimulate and was administered i.p. as in published studies; vehicle was orally administered.

hDAT, sequence (Q01959 whole entry): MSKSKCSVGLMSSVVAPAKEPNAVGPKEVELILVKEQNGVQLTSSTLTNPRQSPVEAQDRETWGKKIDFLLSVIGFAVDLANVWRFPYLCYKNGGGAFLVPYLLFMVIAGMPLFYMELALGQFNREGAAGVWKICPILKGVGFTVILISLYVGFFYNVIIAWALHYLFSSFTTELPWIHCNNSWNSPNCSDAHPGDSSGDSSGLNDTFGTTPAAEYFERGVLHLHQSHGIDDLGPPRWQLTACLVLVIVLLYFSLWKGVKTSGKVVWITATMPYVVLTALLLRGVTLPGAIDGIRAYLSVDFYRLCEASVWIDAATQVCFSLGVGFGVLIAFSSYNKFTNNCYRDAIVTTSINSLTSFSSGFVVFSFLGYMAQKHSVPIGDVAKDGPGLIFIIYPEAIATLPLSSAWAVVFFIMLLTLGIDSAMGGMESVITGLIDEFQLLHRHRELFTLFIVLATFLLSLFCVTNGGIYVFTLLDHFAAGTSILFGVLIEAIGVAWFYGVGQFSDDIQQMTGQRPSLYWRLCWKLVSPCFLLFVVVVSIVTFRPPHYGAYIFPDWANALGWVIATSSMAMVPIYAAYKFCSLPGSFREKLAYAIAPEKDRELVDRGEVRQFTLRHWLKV

COc1ccc(CN[C@@H]2CO[C@H](C(c3ccc(F)cc3)c3ccc(F)cc3)C[C@H]2O)cc1 (as salt: hydrochloride) [Compound D-473, (2S,4R,5R)-2-(bis(4-fluorophenyl)methyl)-5-((4-methoxybenzyl)amino)tetrahydro-2H-pyran-4-ol]
melting point: 190 to 205 °C

COc1ccc(CN[C@@H]2CO[C@H](C(c3ccccc3)c3ccccc3)C[C@H]2O)cc1 [Compound D-142]
Ki (hDAT): 179 ± 27 nM
Oral bioavailability [1]: poor oral bioavailability
Ki (hNET): 21.2 ± 4.3 nM
Cmax ([2]; 3% HPßCD in water, read-out: Average maximum plasma concentration, Cmax): 125 ± 36.6 ng/mL
half-life ([2]; read-out: Average half-life (converted)): 2.5 ± 0.96 h
Ki (hSERT): 5.43 ± 1.4 nM

CC(N)Cc1ccccc1 (stereo not drawn) [amphetamine]
Reductions in DOPAC (dialysate DOPAC): ~65%

Fc1ccc(C(OCCN2CCN(CCCc3ccccc3)CC2)c2ccc(F)cc2)cc1 [GBR 12909, 1-[2-[bis(4-fluorophenyl)methoxy]ethyl]-4-[3-phenylpropyl]piperazine, reference compound]
Locomotor activity (horizontal activity) [3]: significant rise
